In patent US20230130102A1, “Na/K-ATPase LIGANDS AND USE THEREOF FOR TREATMENT OF CANCER” (Marshall University Research Corporation, priority 2019, published 2023):
“Also recorded” adds a separate entry of the source.

What was measured:
[1] = test system: EGF or dopamine induced ERK activation; assay: EGF- or dopamine-induced ERK activation in LLC-PK1 cells; format: cell-based, pig
Procedure: (§1) Western blot, Immunoprecipitation and Immunostaining. Cells were grown to 100% confluency and Western blot were performed as described before. Images were quantified with ImageJ software from NIH. Immunoprecipitation studies were performed as described before. α1 NKA immunostaining was performed by growing cells on sterilized coverslips in 6 well tissue culture plates and permeabilization/fixation with ice-cold methanol followed by blocking with 5% horse serum and 0.1% Triton X-100 in 1× Phosphate buffered saline (PBS) for 30 minutes. Coverslips were then stained with an anti-α1 NKA antibody (Millipore, Cat #05-369) at 1:100 dilution in 1% BSA (Bovine Serum Albumin) containing 1×PBS solution for overnight. Next day after three washes, coverslips were stained with Alexa Fluor 488 conjugated anti-mouse secondary antibody (Thermo-Fisher) for 1 hour, washed extensively and then imaged using a fluorescent microscope with GFP filter or confocal microscope (LEICA-DMIRE2). E-cadherin and occludin immunostaining was performed in a similar manner. Phospho-Src, phospho ERK1/2 immunostaining were performed as described before and images were taken with a LEICA DMIRE2 confocal microscope. […]

[2] = biological target: T1, YFP-tagged α1 NKA (Rattus norvegicus, UniProt P06685); assay: ouabain-induced α1 NKA endocytosis in YFP-α1-TCN cells; format: cell-based; settings: YFP-α1-TCN cells, pretreatment
T1 construct: expressed in transfected cells; host or cells: YFP-α1-TCN cells
Procedure: It is appreciated that ouabain induces Src/ERK activation (increased protein phosphorylation) of LLC-PK1 cells by binding to α1 NKA and thereby initiates a signaling cascade which results in the endocytosis of the α1 NKA to terminate the signaling.
α1 NKA endocytosis assay. Endocytosis assay was performed as described before.
Characterization of MB5 activity on the NKA receptor function known as the NKA/Src binary receptor mechanism was conducted in a pig kidney epithelial cells (LLC-PK1)-based platform using immunostaining and Western blot analyses. […] The change of NKA conformation that occurs upon binding of agonists such as ouabain, results in the release and activation of the Src kinase domain from the “Naktide” site of NKA CD3, while the other interaction (constitutive) persists between NKA CD2 and the SH2 domain of Src.

[3] = test system: DU145 derived subclones; assay: Western blot / immunostaining of EMT markers, Src/FAK activation and proliferation markers in DU145 derived subclones; format: cell-based, human; settings: for expression of PCNA: 72 hours
Procedure: (§2) Western blot, Immunoprecipitation and Immunostaining. Cells were grown to 100% confluency and Western blot were performed as described before. Images were quantified with ImageJ software from NIH. Immunoprecipitation studies were performed as described before. α1 NKA immunostaining was performed by growing cells on sterilized coverslips in 6 well tissue culture plates and permeabilization/fixation with ice-cold methanol followed by blocking with 5% horse serum and 0.1% Triton X-100 in 1× Phosphate buffered saline (PBS) for 30 minutes. Coverslips were then stained with an anti-α1 NKA antibody (Millipore, Cat #05-369) at 1:100 dilution in 1% BSA (Bovine Serum Albumin) containing 1×PBS solution for overnight. Next day after three washes, coverslips were stained with Alexa Fluor 488 conjugated anti-mouse secondary antibody (Thermo-Fisher) for 1 hour, washed extensively and then imaged using a fluorescent microscope with GFP filter or confocal microscope (LEICA-DMIRE2). E-cadherin and occludin immunostaining was performed in a similar manner. Phospho-Src, phospho ERK1/2 immunostaining were performed as described before and images were taken with a LEICA DMIRE2 confocal microscope.
Next, it was tested whether MB5 as an inverse agonist of NKA receptor function could reverse EMT and stop invasion of PCa cells by rescuing α1 NKA expression in PCa. Subclone 5 and 2 cells were exposed to a long term treatment (0, 24, 48 and 72 hours) with 100 nM MB5.

[4] = test system: PC3 cells; assay: Western blot and cell fractionation in PC3 cells; format: cell-based, human; settings: PC3, 72-120 hours of treatment
Procedure: as §2

[5] = test system: PY17 cells; assay: basal ERK phosphorylation in PY17 cells; format: cell-based, pig
Procedure: as §1

[6] = test system: subclone 4 and 2 xenograft; assay: tumor xenograft of aggressive subclones 4 and 2 in NOD/SCID mice; format: in vivo, mouse
Procedure: Mice studies. Animal protocols were approved by an Institutional Animal Care and Use Committee (IACUC) according to NIH guidelines. Tumor xenografts were established by subcutaneous injection of 5×10^6 cancer cells into the left and right flanks of 10-week-old male NOD/SCID mice (Charles River). Tumor length (L) and width (W) were measured with calipers weekly and tumor volume was estimated as V=(L×W^2)/2. After the tumor volumes reached approximately 100 mm^3, mice were sacrificed and tumors were harvested. Half of the tumors were used for protein extraction and the other half were digested with collagenase I solution (SIGMA) to isolate cancer cells.
For MB5 treatment, after tumor volume reached approximately 100 mm^3, mice were injected peritoneally with DMSO or MB5 at 20 mg/kg or 10 mg/kg daily and further monitored for tumor growth weekly. At the end of treatment period (about 2-3 weeks), tumors were harvested and tumor lysates were analyzed for protein expression by Western blot.
The therapeutic potential of MB5 in a tumor xenograft model was first tested by injecting DU145 or corresponding α1 knockdown cells (KD) into the right or left flank of 10-week-old NOD/SCID mice. The tumor growth was monitored twice weekly. […] Next, it was determined whether MB5 could decrease tumor growth of highly aggressive subclones derived from DU145. […]

[7] = test system: P450 enzymes; assay: metabolism by P450 enzymes; format: in vitro ADME
[8] = Western blot, 100 nM, up to 72 hours

O=c1c2cccc(O)c2oc2c(O)c(O)ccc12 [MB5]
EGF-induced ERK activation [1]: did not inhibit; also recorded: failed to inhibit; also recorded: did not affect EGF-induced ERK activation
dopamine-induced ERK activation [1]: did not inhibit; also recorded: failed to inhibit; also recorded: did not affect dopamine-induced activation of ERK
inhibition of ouabain-induced α1 NKA endocytosis [2]: able to inhibit ouabain-induced α1 NKA endocytosis; also recorded: potent inverse agonist of ouabain-induced α1 NKA endocytosis; also recorded: inhibited ouabain-induced α1 NKA endocytosis in a concentration dependent manner
Src, FAK activation and Myc expression ([3]; 100 nM, subclones 5 and 2): significant decrease
expression of mesenchymal markers (SNAIL, ZEB1) [3, 8]: downregulating; also recorded: decreased expression of mesenchymal markers
α1 NKA and E-cadherin expression [3, 8]: increasing; also recorded: significant time-dependent increase; also recorded: increased α1 NKA and E-cadherin expression
expression of PCNA ([3]; subclone 2, 100 nM): significantly reduced
expression of PCNA ([3]; subclone 5, 100 nM): abolished
EMT phenotype [4]: reversed the EMT phenotype
Src activation [4]: decreased Src activation
α1 NKA expression [4]: significantly increased α1 NKA expression
basal ERK phosphorylation [5]: inhibited ERK phosphorylation in a dose-dependent manner
tumor growth ([6]; 10 mg/kg, subclones 4 and 2): significantly reduced tumor growth from both cell types; also recorded: significantly reduced xenografted tumor growth
α1 NKA and E-cadherin expression in tumor lysates ([6]; subclone 2 tumor lysates, Western blot): increasing α1 NKA and E-cadherin expression
metabolism by P450 enzymes [7]: not metabolized significantly
